How the values were obtained:
Pin1 [1] = biological target: T1, Pin1 (Homo sapiens, UniProt Q13526); experiment: confirmatory Pin1 fluorescence polarization competition assay (Alexa488 reconfirmed); details: for Emax: read-out: Alexa488 Reconfirmed Efficacy; for Alexa488 Reconfirmed Curve Class: confirmatory retest;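 as to all read-outs here: Pin1 competition with a HiFluor488-labelled peptide probe, read as fluorescence polarization after 10 min at room temperature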
Method: The goal of this assay was to identify small-molecule inhibitors of Pin1 using a fluorescence polarization competition assay (FIG. 1). […] Candidate compounds were screened in a concentration-titration series (e.g., 57 μM to 0.7 nM).
(§1) Pin1 (0.6 μM) was dispensed into black, solid 1536-well plates (32 rows by 48 columns) at 2 μL/well in Pin1 buffer (10 mM HEPES (pH 7.5), 10 mM NaCl, 0.01% Tween20, 1 mM DTT, and 1% glycerol). Next, 23 nL of compound or DMSO was delivered to each well using a pin tool (tip wash sequence: DMSO, IPA, MeOH, 3 s vacuum dry). Two μL of Pin1-1b-HiFluor488 peptide in buffer (10 mM HEPES (pH 7.5), 10 mM NaCl, 0.01% Tween20, 1 mM DTT, and 1% glycerol, 0.02 μM Pin1-1b-HiFluor488) or DMSO was then dispensed to each well using a pin tool (tip wash sequence: DMSO, IPA, MeOH, 3 s vacuum dry), and plates were incubated at room temperature for 10 min (Table 2). Each plate included controls with no candidate inhibitory compound (32 wells), with unlabeled Pin1-1c titration (3.5 mM to 0.020 mM in a 1:2 dilution series including 2 replicates per concentration; 32 wells), and without Pin1 (64 wells).
(§2) The fluorescence polarization signal of each well was measured on a ViewLux® plate reader using a 480/20 nm excitation filter and 540/25 nm S and P emission filters with a 20 second exposure with 2× binning (Table 2). Percent inhibitory activity was determined from corrected fluorescence polarization values.
(§3) Concentration-response curves were fitted to the signals arising from the resulting fluorescence polarization. The concentration-effect curves were then classified based on curve quality (r^2), response magnitude, and degree of measured activity. Compounds were subsequently categorized based on their curve class.

Pin1 [2] = biological target: T1, Pin1; experiment: Pin1 fluorescence polarization competition assay, primary qHTS (HiFluor-488 / Alexa488 probe);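 also: Pin1 protein with fluorescent peptide probe, compound displacement read by fluorescence polarization, percent inhibition derived from corrected polarization values, concentration-response curves in 1536-well format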
Pin1 [3] = biological target: T1, Pin1; experiment: Pin1 fluorescence polarization competition assay with Tamra-probe (secondary); details: for Emax: read-out: Tamra Secondary Efficacy; for Tamra Secondary Curve Class: Tamra-probe
Method: An assay was developed for the identification of inhibitors of Pin1. […] Candidate compounds were screened in a concentration-titration series (e.g., 57 μM to 0.7 nM).
as §1, §2, §3
A further secondary assessment was accomplished by replacing the HiFluor-488-labeled probe with Tamra-probe, a red-shifted fluorophore.

[4] = Alexa488 Primary Potency, primary qHTS
[5] = Average HTS Potency, average over Alexa488 primary, Alexa488 reconfirmed and Tamra secondary assays
[6] = read-out: Alexa488 Primary Efficacy

T1 sequence (Q13526 whole entry): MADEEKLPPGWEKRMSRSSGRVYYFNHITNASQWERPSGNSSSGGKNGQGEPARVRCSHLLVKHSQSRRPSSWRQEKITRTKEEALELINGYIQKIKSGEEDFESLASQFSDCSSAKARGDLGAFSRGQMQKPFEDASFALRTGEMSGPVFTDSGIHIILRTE

Row | SMILES | IC50 (Pin1 [1]) [µM] | Emax (Pin1 [1]) [%] | IC50 (Pin1 [2]; [4]) [µM] | IC50 (Pin1 [2]; [5]) [µM] | Emax (Pin1 [2]; [6]) [%] | Emax (Pin1 [2]; read-out: Average HTS Efficacy) [%] | IC50 (Pin1 [3]) [µM] | Emax (Pin1 [3]) [%] | Alexa488 Reconfirmed Curve Class (Pin1 [1]) | Alexa488 Primary Curve Class (Pin1 [2]; primary qHTS) | Tamra Secondary Curve Class (Pin1 [3])
1 | COc1ccc(NC(=O)CN(C)C(=O)c2cc3c(s2)CCC3)cc1 [Compound 26] | 24 | 111 | 20 | 22 | 71 | 94 | 21 | 101 |  |  | 
2 | O=C(O)c1[nH]c2ccccc2c1C(c1cc(Cl)cc([N+](=O)[O-])c1O)c1c(C(=O)O)[nH]c2ccccc12 [Compound 44] | 12 | 63 | 36 | 24 | 90 | 79 | 24 | 83 | 2.2 (≤80% (class 2.2)) | 2.2 (≤80% (class 2.2)) | 2.2 (≤80% (class 2.2))
3 | COc1ccc(S(=O)(=O)N2CCN(C(=O)c3cc4c(s3)CCC4)CC2)cc1 [Compound 27] |  | 112 | 23 | 27 | 85 | 108 | 27 | 126 |  |  | 
4 | COc1ccc(C(=O)c2no[n+]([O-])c2C(=O)c2ccc(OC)cc2)cc1 [Compound 32] | 0.24 | 82 | 38 | 13 | 21 | 61 | 0.19 | 81 |  | 1.2 (≤80% (class 1.2)) | 
5 | C=CCOc1ccc(C(c2c(C(=O)O)[nH]c3ccccc23)c2c(C(=O)O)[nH]c3ccccc23)cc1 [Compound 46] | 27 | 84 | 43 | 30 | 82 | 81 | 21 | 78 | 2.2 (≤80% (class 2.2)) | 2.2 (≤80% (class 2.2)) | 2.2 (≤80% (class 2.2))
6 | COc1cc(C(c2c(C(=O)O)[nH]c3ccccc23)c2c(C(=O)O)[nH]c3ccccc23)ccc1OCc1ccccc1 [Compound 47] | 19 | 84 | 79 | 40 | 26 | 67 | 21 | 91 | 2.2 (≤80% (class 2.2)) | 1.2 (≤80% (class 1.2)) | 
7 | O=S(=O)(O)c1ccc(O)c2cc(Nc3ccccc3)ccc12 [Compound 13] | 2 | 89 | 9 | 4 | 89 | 89 | 3 | 88 |  |  | 
8 | CCCCCCCCCCCCN1[C@@H](C(=O)O)c2cc(C(F)(F)F)ccc2S1(=O)=O [Compound 34] | 24 | 104 | 20 | 27 | 65 | 91 | 38 | 103 |  |  | 3.0
9 | O=C(O)C1Nc2ccc(Br)cc2C2C=CCC12 (stereo not shown) [Compound 6] | 10 | 85 | 22 | 14 | 42 | 72 | 11 | 87 |  |  | 
10 | O=C(O)Cc1c[nH]c2cccc(O)c12 [Compound 23] | 15 | 92 | 76 | 33 | 63 | 77 | 8 | 77 |  |  | 2.2 (≤80% (class 2.2))
11 | Cc1ccc(N(Cc2cc(=O)[nH]c3ccccc23)C(=O)CCl)cc1 [Compound 9] | 2 | 111 | 10 | 4 | 78 | 95 | 1.2 | 97 |  |  | 
12 | N#Cc1no[n+]([O-])c1C(=O)c1cccs1 [Compound 31] | 2 | 85 | 4 | 2 | 74 | 80 | 2 | 82 |  |  | 

Source: US11129835B2, “Methods and compositions for the inhibition of PIN1” (Beth Israel Deaconess Medical Center, Inc., priority 2012, dated 2021)
